We go through ten molecules from article PMC9267955, “Antidiabetic, Antiglycation, and Antioxidant Activities of Ethanolic Seed Extract of Passiflora edulis and Piceatannol In Vitro” (Molecules, 2022).

Marks after values point to notes of the source that are not given here.

For assay [1], the system named is BSA/fructose + glucose fluorescent AGEs. In words: Inhibition of AGE formation, initial stage of glycation (BSA/fructose + glucose). The class given is biochemical, bovine. The conditions noted are these: BSA/fructose + glucose model, 7 days, 37 °C. As for the experimental part:
The formation of AGEs was measured after incubation of a system containing protein and carbohydrates. This assay was based on previous methods. The reaction system was obtained by adding 300 µL of plant extract or of the pure compound (at different concentrations), 150 µL D-fructose (200 mM), 150 µL of D-glucose (200 mM), and 300 µL of bovine serum albumin (BSA, 3 mg/mL) to a test tube. All these solutions, except plant extract, were dissolved in 0.05 M potassium phosphate buffer (pH 7.4) containing NaCl (100 mM) and NaN3 (0.02% w/v). The plant extract was prepared in a buffer containing 60% ethanol. The mixture was incubated in the dark at 37 °C for 7 days with constant stirring. After the incubation, 200 µL of the reaction mixture was transferred to a 96-well black plate, and fluorescent AGEs were measured using a microplate reader (Infinite® 200 PRO, TECAN, Männedorf, Switzerland) at λex = 360 and λem = 440 nm. […]. Aminoguanidine (AMG), a known AGE formation inhibitor, was used as a standard. The reaction mixture without inhibitors was used as a positive control. Color interference from the sample was eliminated by a sample control (buffer and sample). The fluorescence readings for the experimental treatment were blanked against extract blanks to eliminate the baseline fluorescence of the sample. The percentage of the AGE inhibition and IC50 was calculated as described in Section 3.3.1.

The next assay has as its system BSA/MGO fluorescent AGEs. The assay is described as follows: Inhibition of AGE formation, intermediate stage of glycation (BSA/MGO). The class given is biochemical, bovine. Particulars: BSA/MGO model. The method, then: (§1) The BSA-MGO assay was based on those described before, with some modifications. This experiment is based on the formation of fluorescent AGEs from the middle stage of protein glycation. MGO (1.5 mM) and BSA (3 mg/mL) were dissolved separately in 0.05 M phosphate buffer (pH 7.4) containing NaCl (100 mM) and NaN3 (0.02% w/v). Then, 300 μL of MGO was incubated with samples at different concentrations (dissolved in a buffer containing 60% ethanol) for an hour at 37 °C, in the dark, with constant stirring. After BSA (3 mg/mL) was added to the reaction mixture and incubation time was extended to 48 h at 37 °C in darkness. The rest of the procedure was the same as that for the BSA-glucose/fructose model that is described above. The percentage of the AGE inhibition and IC50 was calculated as described in Section 3.3.1.

The test system of assay [2] is amyloid fibrils of glycated BSA (BSA/MGO). The assay is described as follows: Inhibition of amyloid fibril formation, ThT assay (BSA/MGO). The conditions noted are these: highest obtained, PESE 200, PIC 200, AMG 100 µg/mL. The class given is biochemical, bovine. As for the experimental part:
as §1
The fibrillar state of modified BSA was determined with ThT as previously described. ThT is a probe that binds directly to amyloid fibrils to give a strong fluorescent signal and thus can be used to quantify β-amyloid due to protein glycation. Basically, 30 μL of glycated protein (approx. 1 mg/mL), obtained as described previously, was mixed with 100 μL ThT reagent (10 μM ThT in 100 mM phosphate buffer, pH 7.0), and fluorescence was collected at excitation/emission wavelengths of 450/490 nm in a microplate reader (Infinite® 200 PRO, TECAN, Männedorf, Switzerland). […]

Assay [3] can be described thus: MGO capture using derivatization with OPD (HPLC). Particulars: PESE 2 mg/mL, PIC 2 mM, AMG 2 mM; MGO 2 mM; 37 °C, 1 h. The method, then:
MGO scavenging was tested using a described procedure, with slight modifications. The quantification of MGO was based on derivatization with OPD, leading to the formation of the product 2-methylquinoxyline (2-MQ). MGO and OPD were dissolved in phosphate buffer (50 mM, pH 7.4) to a concentration of 2 mM and 4 mM, respectively. […] The reaction system was composed of 125 μL of the MGO solution, 125 μL of phosphate buffer (negative control), or PESE incubated at 37 °C for 1 h. After 250 μL of the OPD solution was added, the tubes were kept for 30 min for the derivatization reaction between MGO and OPD to complete. Then, the chromatographic analysis was performed. All solutions were previously filtered (microfilter pore diameter 0.45 μm). […] The linear gradient for elution was: starting at 5% of solvent B, 0–3 min, 5 to 50% B; 3–16 min, isocratic in 50% B; 16–17 min, 50–90% B; 17–19 min, isocratic in 90% B and 19–19.5 min, 90–5% B. The derivatization product, 2-methylquinoxyline (2-MQ), was detected at 315 nm, with a retention time of 10 min. The percentage of trapping efficiency of MGO was calculated using the following equation: % trapping MGO = [100 − (peak area after adding sample/peak area without adding sample) × 100].

Assay [4] in a line: DPPH radical scavenging assay. The method, then:
After incubation in the dark for 30 min, the absorbance was read at 516 nm, using a UV–Vis spectrophotometer (Agilent Technologies, Santa Clara, CA, USA). Results were expressed as the half-maximal inhibitory concentration (IC50) in μg/mL.
(Loss of DPPH colour is used to gauge radical scavenging.)

A short description of assay [5]: Superoxide anion radical scavenging activity. The method, then: The potential of the samples to scavenger superoxide anion radicals was determined, with minor modifications. […] Phosphate buffer (19 mM, pH 7.4) was used to dissolve NADH, NBT, and PMS. QCT was used as means of comparison. The experiment was conducted at 37 °C in a microplate reader (Infinite® 200 PRO, TECAN, Männedorf, Switzerland), and the absorbance was measured at 560 nm. The results were expressed as IC50 of extract solution in μg/mL.

On the set-up of assay [6]: method as in PMID 31683151. Particulars: compound 5 mM, MGO 5 mM; cited from earlier work.

Procedure for HOCl scavenging activity: Briefly, a freshly prepared HOCl solution, by adjusting the pH of a 1% solution of NaOCl to 6.2 with dropwise addition of diluted H2SO4, was diluted to 30 µM, using 100 mM phosphate buffer pH 7.4. […] QCT was used as means of comparison. Fluorescence assays were performed in a microplate reader (Infinite® 200 PRO, TECAN, Männedorf, Switzerland), at 37 °C, at wavelengths of 505 ± 10 nm and 530 ± 10 nm, for excitation and emission, respectively. The results were expressed as IC50 (μg/mL) of extract solution.

As to `N=C(N)NN` [AMG, Aminoguanidine], in assay [1], the “Antiglycation IC50, Fructose + Glucose” value was 25.5 ± 5.0 ^c μg/mL. The “Antiglycation IC50, MGO” value with BSA/MGO fluorescent AGEs is reported as 50.4 ± 1.8 ^c μg/mL. Also, the “Inhibition of Amyloid Fibrils (%), MGO” value in assay [2] is on record as 30.3 ± 4.4 ^c %. For the same molecule, the MGO trapping in assay [3] was 99.6%. One may read the IC50 as the concentration that inhibits the measured activity by half. Consider `O=c1c(O)c(-c2ccc(O)c(O)c2)oc2cc(O)cc(O)c12` [QCT, quercetin], for which the “DPPH• IC50” value in assay [4] (30 min) stood at 4.8 ± 1.0 µg/mL. Moreover, the IC50 in assay [4] (data in parenthesis are in μM) is 15.9 µM; in assay [5] (data in parenthesis are in μM, read-out: O2•− IC50 (in parenthesis) (converted)), 29.2 µM. Besides, in “HOCl scavenging activity”, the “HOCl IC50” value stood at 1.9 ± 0.3 µg/mL. Further, the “O2•− IC50” value in assay [5] stood at 8.8 ± 0.3 µg/mL. Also, the MGO capture percentage in assay [6] was 21.4%. As for `O=c1cc(-c2ccc(O)cc2)oc2cc(O)cc(O)c12` [apigenin], the MGO capture percentage in assay [6] is reported as 36.5%. `COc1cc(-c2cc(=O)c3c(O)cc(O)cc3o2)ccc1O` [chrysoeriol]: in assay [6], the MGO capture percentage was 41.8%.

Regarding `O=c1c(-c2ccc(O)cc2)coc2cc(O)cc(O)c12` [genistein], in assay [6], the MGO capture percentage is 43.4%.

Consider `O=c1c(O)c(-c2ccc(O)cc2)oc2cc(O)cc(O)c12` [kaempferol], for which the MGO capture percentage in assay [6] was 58.9%. Consider `O=c1cc(-c2ccc(O)c(O)c2)oc2cc(O)cc(O)c12` [luteolin], for which the MGO capture percentage in assay [6] is given as 40.7%. For `CC1OC(OCC2OC(Oc3c(-c4ccc(O)cc4)oc4cc(OC5OC(C)C(O)C(O)C5O)cc(O)c4c3=O)C(O)C(O)C2O)C(O)C(O)C1O` (stereo not drawn) [robinin], the MGO capture percentage in assay [6] is 54.4%. Consider `C[C@@H]1O[C@@H](OC[C@H]2O[C@@H](Oc3c(-c4ccc(O)c(O)c4)oc4cc(O)cc(O)c4c3=O)[C@H](O)[C@@H](O)[C@@H]2O)[C@H](O)[C@H](O)[C@H]1O` [rutin], for which the MGO capture percentage in assay [6] is listed as 49.3%.

Take procyanidins: the MGO capture percentage in assay [6] is listed as 46.3%.
